Source: patent US20070219210A1, “Amidopyrazole Derivative” (Daiichi Pharmaceutical Co., LTD., priority 2003, published 2007)

How the values were obtained:
[1] = system: collagen-induced platelet coagulation; assay: Inhibitory effect on collagen-induced platelet coagulation in platelet rich plasma; assay type: cell-based; settings: human platelet rich plasma, 37° C., coagulation induced with collagen; read-out: Inhibition of collagen-induced platelet coagulation, IC50
Description: Human blood was collected by using 1/10 volume of 3.13% sodium citrate as an anticoagulant, and the blood was centrifuged at 180 g for 10 minutes to separate platelet rich plasma (PRP), which was the upper layer. After collecting the upper layer PRP, the remaining lower layer was centrifuged at 1600 g for 10 minutes, and platelet poor plasma (PPP) in the upper layer was collected. 1 μl solution of the compound of the Examples was added to 200 μl of the PRP, and after allowing the sample to stand at 37° C. for 2 minutes, 2 μl of collagen was added in order to induce platelet coagulation. Platelet coagulation rate was measured with PAM-12C (SSR Engineering).

Cyclooxygenase-1 (COX-1) = target: T1, Cyclooxygenase-1 (COX-1) (Ovis aries, UniProt P05979); assay: COX Inhibitor Screening Assay Kit (Cayman), PGF2α by ELISA, COX-1; assay type: biochemical; settings: compound at 50 μm; relative to PGF2α produced without compound (100%)
T1 construct: purchased Cayman Chemical Company 560101
T1 sequence (P05979 25-600): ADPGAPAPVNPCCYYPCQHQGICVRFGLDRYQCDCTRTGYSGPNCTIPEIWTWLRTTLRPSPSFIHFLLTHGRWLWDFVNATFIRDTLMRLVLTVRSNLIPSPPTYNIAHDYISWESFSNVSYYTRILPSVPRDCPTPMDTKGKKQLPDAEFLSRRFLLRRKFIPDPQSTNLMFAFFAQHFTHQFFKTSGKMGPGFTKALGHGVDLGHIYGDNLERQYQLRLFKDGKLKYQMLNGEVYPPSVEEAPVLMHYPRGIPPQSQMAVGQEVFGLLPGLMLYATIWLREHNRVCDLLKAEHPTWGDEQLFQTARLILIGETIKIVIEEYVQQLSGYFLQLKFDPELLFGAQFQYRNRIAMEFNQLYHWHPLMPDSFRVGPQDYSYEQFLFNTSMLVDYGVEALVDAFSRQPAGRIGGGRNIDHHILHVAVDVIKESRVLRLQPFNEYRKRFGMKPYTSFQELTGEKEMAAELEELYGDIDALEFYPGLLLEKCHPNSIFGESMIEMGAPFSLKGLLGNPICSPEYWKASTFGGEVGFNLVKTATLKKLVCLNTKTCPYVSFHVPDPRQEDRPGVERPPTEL
Description: (§1) Inhibitory activity against COX-1 and COX-2 of the compounds produced in the Examples was measured by using COX Inhibitor Screening Assay Kit (Catalog Nos. 560101 and 560121) purchased from Cayman Chemical Company.
(§2) Before starting the measurement, reaction buffer, heme, arachidonic acid, SnCl2, EIA buffer, washing buffer, prostaglandin (PG) screening EIA standard, PG screening acetylcholine esterase (AchE), tracer (chromogenic enzyme HRP conjugate), and PC screening EIA antiserum were prepared ready for use.
(§3) The reaction mixture containing the compound of the Examples (50 μM) and COX-1 or COX-2 was allowed to stand at 37° C. or 10 minutes, and after adding 10 μl of arachidonic acid, the solution was again allowed to stand at 37° C. for 2 minutes. After the reaction, the reaction was terminated by adding 50 μl of 1N-hydrochloric acid, and 100 μl solution of SnCl2 was added, and the reaction mixture was allowed to stand at room temperature for 5 minutes.
(§4) 50 μl of antiserum (rabbit anti-PGF2α antibody) was placed in the wells of 96 well plate that had been coated with mouse anti-rabbit IgG and 50 μl of the 2000-fold diluted PGF2α-containing liquid described above and 50 μl of AchE tracer were added to the well in this order, and the mixture was allowed to stand at room temperature for 18 hours. The wells were washed 5 times with the washing buffer to remove an excessive AchE tracer, and 200 μl of Ellman reagent was added. After leaving the plate in a dark room for 60 minutes, absorbance was measured at 405 nm.
(§5) A calibration curve was obtained by using the PG screening EIA standard, and the amount of PGF2α produced was determined from the absorption. Inhibitory rate at 50 μM of the compound of the Examples against COX-1 or COX-2 was calculated.
(§6) It is to be noted that the inhibitory rate was calculated in relation to the amount of the PGF2α produced by the reaction liquid free from the compounds of the Examples, which was taken 100%.

Cyclooxygenase-2 (COX-2) = target: T2, Cyclooxygenase-2 (COX-2) (Homo sapiens, UniProt P35354); assay: COX Inhibitor Screening Assay Kit (Cayman), PGF2α by ELISA, COX-2; assay type: biochemical; settings: compound at 50 μm; relative to PGF2α produced without compound (100%)
T2 construct: purchased Cayman Chemical Company 560121
T2 sequence (P35354 18-604): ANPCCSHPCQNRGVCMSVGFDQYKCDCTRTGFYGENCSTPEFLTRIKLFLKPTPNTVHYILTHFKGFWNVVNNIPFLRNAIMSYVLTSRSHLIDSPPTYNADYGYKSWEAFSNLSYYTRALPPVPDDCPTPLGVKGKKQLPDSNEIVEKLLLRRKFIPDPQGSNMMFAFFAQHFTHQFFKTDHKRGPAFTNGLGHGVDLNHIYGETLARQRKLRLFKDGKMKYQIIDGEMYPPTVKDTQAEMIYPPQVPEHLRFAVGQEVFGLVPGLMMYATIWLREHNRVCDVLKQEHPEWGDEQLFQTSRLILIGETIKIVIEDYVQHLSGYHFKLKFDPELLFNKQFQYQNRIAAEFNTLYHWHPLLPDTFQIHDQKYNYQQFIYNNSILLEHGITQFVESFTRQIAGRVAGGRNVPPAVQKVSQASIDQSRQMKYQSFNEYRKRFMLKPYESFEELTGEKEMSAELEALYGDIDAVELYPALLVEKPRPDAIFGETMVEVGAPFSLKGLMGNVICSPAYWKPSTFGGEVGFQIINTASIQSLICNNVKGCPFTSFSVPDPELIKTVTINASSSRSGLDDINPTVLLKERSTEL
Description: as §1, §2, §3, §4, §5, §6

Row | Structure (SMILES) | IC50 [1] | Inhibitory effect against COX-1 at 50 μm (% inhibition) (Cyclooxygenase-1 (COX-1)) | Inhibitory effect against COX-2 at 50 μm (% inhibition) (Cyclooxygenase-2 (COX-2))
1 | COc1ccc(-n2nc(C(=O)NC(C)(C)C)cc2-c2cc(CO)ccn2)cn1 [Example 4, N-tert-Butyl-5-(4-hydroxymethyl-2-pyridyl)-1-(6-methoxy-3-pyridyl)-1H-pyrazole-3-carboxamide] | 120 nM | −1.5 % inhibition | −1.9 % inhibition
2 | Cc1ccc(-n2nc(C(=O)NC(C)(C)C)cc2-c2ccccn2)cn1 [Example 8, N-tert-Butyl-1-(6-methyl-3-pyridyl)-5-(2-pyridyl)-1H-pyrazole-3-carboxamide] | 18 nM | −3.3 % inhibition | 3.9 % inhibition
3 | COc1ccc(-n2nc(C(=O)NC(C)(C)C)cc2-c2cnccn2)cn1 [Example 13, N-tert-Butyl-1-(6-methoxy-3-pyridyl)-5-(2-pyrazinyl)-1H-pyrazole-3-carboxamide] | 18 nM | 13.9 % inhibition | 9.2 % inhibition
4 | COc1cnc(-n2nc(C(=O)NC(C)(C)C)cc2-c2ccccn2)cn1 [Example 15, N-tert-Butyl-1-(5-methoxy-2-pyrazinyl)-5-(2-pyridyl)-1H-pyrazole-3-carboxamide] | 29 nM | 39.5 % inhibition | 6.9 % inhibition
5 | CC(C)(C)NC(=O)c1cc(-c2ccc(O)cn2)n(-c2cccnc2)n1 [Example 22, N-tert-Butyl-5-(5-hydroxy-2-pyridyl)-1-(3-pyridyl)-1H-pyrazole-3-carboxamide] | 210 nM | 0.8 % inhibition | 4.2 % inhibition
6 | COc1ccc(-c2cc(C(=O)NC(C)(C)C)nn2-c2cccnc2)nc1 [Example 25, N-tert-Butyl-5-(5-methoxy-2-pyridyl)-1-(3-pyridyl)-1H-pyrazole-3-carboxamide] | 18 nM | 4.7 % inhibition | 8.2 % inhibition
7 | CC(C)(C)NC(=O)c1cc(-c2ccc(CO)cn2)n(-c2cccnc2)n1 [Example 26, N-tert-Butyl-5-(5-hydroxymethyl-2-pyridyl)-1-(3-pyridyl)-1H-pyrazole-3-carboxamide] | 65 nM | 5.5 % inhibition | 8.2 % inhibition
8 | CC(C)(C)NC(=O)c1cc(-c2ccc(Cl)cn2)n(-c2cccnc2)n1 [Example 28, N-tert-Butyl-5-(5-chloro-2-pyridyl)-1-(3-pyridyl)-1H-pyrazole-3-carboxamide] | 8.9 nM | 5.4 % inhibition | 7.6 % inhibition
9 | CC(C)(C)NC(=O)c1cc(-c2ccc(N)cn2)n(-c2cccnc2)n1 [Example 71] | 23.1 nM | 7.9 % inhibition | –
10 | CC(C)(C)NC(=O)c1cc(-c2ccc(CN)cn2)n(-c2ccccc2)n1 [Example 74, N-tert-Butyl-5-(5-aminomethyl-2-pyridyl)-1-phenyl-1H-pyrazole-3-carboxamide] | 170 nM | 38.8 % inhibition | –
11 | CC(C)(C)NC(=O)c1cc(-c2ccc(F)cn2)n(-c2cccnc2)n1 [Example 85, N-tert-Butyl-5-(5-fluoro-2-pyridyl)-1-(3-pyridyl)-1H-pyrazole-3-carboxamide] | 54 nM | – | –
12 | CC(C)(C)NC(=O)c1cc(-c2cnc(N)cn2)n(-c2cccnc2)n1 [Example 95, N-tert-Butyl-5-(5-amino-2-pyrazinyl)-1-(3-pyridyl)-1H-pyrazole-3-carboxamide] | 160 nM | −9.1 % inhibition | –
13 | CC(C)(CF)NC(=O)c1cc(-c2ccc(N)cn2)n(-c2cccnc2)n1 [Example 98, N-(2-Fluoro-1,1-dimethylethyl)-5-(5-amino-2-pyridyl)-1(3-pyridyl)-1H-pyrazole-3-carboxamide] | 43 nM | −20.4 % inhibition | –
14 | CC(C)(CF)NC(=O)c1cc(-c2cnc(N)cn2)n(-c2cccnc2)n1 [Example 113, N-(2-Fluoro-1,1-dimethylethyl)-5-(5-amino-2-pyrazinyl)-1-(3-pyridyl)-1H-pyrazole-3-carboxamide] | 150 nM | −2.8 % inhibition | –
15 | COc1ccc(-n2nc(C(=O)N(C)C)cc2-c2ccn(C)c2)cn1 [Example 116, N,N-Dimethyl-1-(6-methoxy-3-pyridyl)-5-(1-methyl-1H-pyrrol-3-yl)-1H-pyrazole-3-carboxamide] | 20 nM | – | –
16 | Cc1ccc(-n2nc(C(=O)NC(C)(C)C)cc2-c2cn(C)cn2)cn1 [Example 122, N-tert-Butyl-5-(1-methyl-1H-imidazol-4-yl)-1-(6-methyl-3-pyridyl)-1H-pyrazole-3-carboxamide] | 100 nM | – | –
17 | C#Cc1ccc(-c2cc(C(=O)NC(C)(C)CF)nn2-c2cccnc2)nc1 [Example 132, 5-(5-Ethynyl-2-pyridyl)-N-(2-fluoro-1,1-dimethylethyl)-1-(3-pyridyl)-1H-pyrazole-3-carboxamide] | 32 nM | – | –
18 | CC(C)(C)NC(=O)c1cc(-c2ccc(CNS(C)(=O)=O)cn2)n(-c2cccnc2)n1 [Example 137, N-tert-Butyl-5-[5-(methanesulfonylamino)methyl-2-pyridyl]-1-(3-pyridyl)-1H-pyrazole-3-carboxamide] | 230 nM | −5.1 % inhibition | –
19 | CC(=O)NCc1ccc(-c2cc(C(=O)NC(C)(C)C)nn2-c2cccnc2)nc1 [Example 138, N-tert-Butyl-5-[5-(acetylamino)methyl-2-pyridyl]-1-(3-pyridyl)-1H-pyrazole-3-carboxamide] | 160 nM | 0.7 % inhibition | –
20 | COC(=O)NCc1ccc(-c2cc(C(=O)NC(C)(C)C)nn2-c2cccnc2)nc1 [Example 139, Methyl {6-[5-(N-tert-butylcarbamoyl)-2-(3-pyridyl)-2H-pyrazol-3-yl]-3-pyridylmethyl}carbamate] | 71 nM | −25.8 % inhibition | –
21 | Cc1ccc(-c2cc(C(=O)NC(C)(C)CO)nn2-c2cccnc2)nc1 [Example 152, N-(2-Hydroxy-1,1-dimethylethyl)-5-(5-methyl-2-pyridyl)-1-(3-pyridyl)-1H-pyrazole-3-carboxamide] | 110 nM | −8.7 % inhibition | –
